According to patent US20030148264A1, “Phage displayed PDZ domain ligands” (GENENTECH, INC., priority 2001, published 2003):
Read-outs that look alike come from different tables or passages of the source. Where a SMILES comes first, the peptide text is derived from it. Where no end group is shown, it is not given here. [ ]: non-standard residue; d: D form. 2Nal = N[C@@H](Cc1ccc2ccccc2c1)C(=O)O

Legend:
ERBIN PDZ domain = ERBIN PDZ domain (Homo sapiens, UniProt Q96RT1); test: Competition ELISA, ERBIN PDZ-GST binding to immobilized biotinylated peptide; design: made in house; host or cells: E. coli; settings: for fold less potent than Ac-WETWV (SEQ ID NO:225): Alanine scanning of WETWV peptide
Protocol: Binding affinities of the peptides for the ERBIN PDZ domain were determined as IC50 values using competition ELISAs. […] Assay plates were prepared by coating Maxisorp plates overnight at 4° C. with 65 μl of a 2 μg/ml solution of neutravidin in PBS. The plates were then blocked through addition of 65 μl of a 1% solution of bovine serum albumin (BSA) in PBS for 1 hour at room temperature, then washed 10 times with PBS containing 0.05% Tween-20. 65 μl of the amino-terminally biotinylated peptide PDZ 501 (TGWETWV; SEQ ID NO:222) was then added at a concentration of 100 nM in PBS with 0.5% BSA and 0.05% Tween-20 and incubated for 1 hour at room temperature. Simultaneously, binding reactions consisting of serial dilutions of the test compounds in PBS with 0.5% BSA and 0.05% Tween-20 containing 2 μg/ml ERBIN PDZ-GST fusion protein were incubated for 1 hour at room temperature. The plate coated with the immobilized peptide was again washed 10 times before 65 μl of each binding reaction was added to a well and incubated for 15 minutes at room temperature. The plates were again washed 10 times before being developed by incubating for 30 minutes with a 1:1000 dilution of anti-mouse HRP conjugated antibody and a 1:2000 dilution of a mouse anti-GST antibody in PBS with 0.5% BSA and 0.05% Tween-20. The plates were washed 10 times, then incubated with 100 μl HRP substrate for 5 minutes and the color developed through addition of 100 μl of 1 M H3PO4. The plates were read at 450 nm and the absorption fit to a binding curve using a least squares fit.
Binding affinities of the peptides for the ERBIN PDZ domain were determined as IC50 values using competition ELISAs. […] Assay plates were prepared by coating microwell plates overnight with neutravidin. The plates were then blocked through addition of BSA, and then amino-terminally biotinylated WETWV (SEQ ID NO:225) was then bound to the plates. Simultaneously, binding reactions consisting of serial dilutions of the test peptides with ERBIN PDZ-GST fusion proteins were performed. The plate coated with the immobilized WETWV (SEQ ID NO:225) was extensively washed before adding each binding reaction to the wells and briefly incubated. After further washing, anti-mouse HRP conjugated antibody and a mouse anti-GST antibody were added. The plates were then developed with HRP substrate and H3PO4, and then read at 450 nm. The absorption fit to a binding curve using a least squares fit. Thus the ability of the various peptides to inhibit ERBIN PDZ domain from binding its cognate was measured. […]

hZO1 PDZ1 = target: T1, hZO1 PDZ1 (Homo sapiens, UniProt Q07157); test: IC50 (nM) | hZO1 PDZ1 | 5 nM | B01-88 | Bio-GGWRWTTWL (SEQ ID NO 684) | 36 nM
T1 construct: Human ZO1 (NM_003257) PDZ1; GST; made in house
Protocol: (§1) Table printed on a drawing sheet, Fig. 12
Head of the field: IC50 (nM) | hZO1 PDZ1 | 5 nM | B01-88 | Bio-GGWRWTTWL (SEQ ID NO 684) | 36 nM
(§2) The patent's description of the figure: FIG. 12. IC50 values indicating binding affinities of various peptides to PDZ domains
(§3) First copying reader's note: The first column (three lines per block: protein, accession, PDZ domain) is treated as one cell spanning its block; an empty ruled row above the IC50/SD head is left out; #### cells are spreadsheet overflow marks as printed; several heads and cells are cut off at the left by the print (ample, eptide No, EQ ID NO).
Where the first naming reader finds the target: head: IC50 (nM) | hZO1 PDZ1 | 5 nM | B01-88

Erbin PDZ = target: T2, Erbin PDZ (Homo sapiens, UniProt Q96RT1); test: IC50 (nM) | Erbin PDZ | 2 nM | PDZ501 | Bio-Ac-GGWETWV (SEQ ID NO 687) | 37 nM
T2 construct: made in house; host or cells: E. coli
Protocol: as §1, §2, §3
Where the first naming reader finds the target: head: IC50 (nM) | Erbin PDZ | 2 nM | PDZ501

[1] = target: ERBIN PDZ-GST fusion protein (aa. 1217-1371 of SEQ ID NO:201) (human) [GST: P08515]; test: competition ELISA: ERBIN PDZ-GST binding to immobilized biotin-WETWV
[2] = target: GST-MAGI-3 PDZ 2 (aa. 584-707 of SEQ ID NO:200) (human) [GST: P08515]; test: competition ELISA: peptide blocks GST-PDZ binding to immobilized peptide
[3] = ERBIN peptide truncations with N-terminal acylation
[4] = ERBIN peptide truncations with N-terminal acylation, read-out: IC50
[5] = Substitutions for tryptophan at the −1 position
[6] = ERBIN peptide truncations without N-terminal acylation
[7] = ERBIN peptide truncations without N-terminal acylation, read-out: IC50
[8] = Small molecules that inhibit ERBIN PDZ domain from binding immobilized WETWV, read-out: IC50
[9] = Substitutions for threonine at the −2 position and glutamate at the −3 position

Chain of ERBIN PDZ-GST fusion protein (aa. 1217-1371 of SEQ ID NO:201) (human) [GST: P08515] (P08515 whole entry, the tested form may be a part): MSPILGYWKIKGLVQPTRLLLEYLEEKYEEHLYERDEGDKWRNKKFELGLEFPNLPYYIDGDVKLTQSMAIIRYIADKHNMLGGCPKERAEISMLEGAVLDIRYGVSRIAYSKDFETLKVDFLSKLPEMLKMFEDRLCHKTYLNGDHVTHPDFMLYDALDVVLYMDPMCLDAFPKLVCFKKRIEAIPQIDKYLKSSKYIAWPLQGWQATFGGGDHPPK
Chain of GST-MAGI-3 PDZ 2 (aa. 584-707 of SEQ ID NO:200) (human) [GST: P08515] (P08515 whole entry, the tested form may be a part): as above
Chain of ERBIN PDZ domain (Q96RT1 1258-1412): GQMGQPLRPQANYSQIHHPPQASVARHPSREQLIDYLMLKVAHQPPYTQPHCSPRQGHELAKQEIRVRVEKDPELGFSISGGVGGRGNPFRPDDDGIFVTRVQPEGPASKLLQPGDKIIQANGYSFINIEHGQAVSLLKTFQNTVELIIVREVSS
T1 sequence (Q07157 23-110): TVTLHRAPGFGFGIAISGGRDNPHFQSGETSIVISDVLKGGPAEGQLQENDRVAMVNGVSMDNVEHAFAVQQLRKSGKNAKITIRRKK
T2 sequence (Q96RT1 1258-1412): as the sequence (Q96RT1 1258-1412) above

Molecule: CC(=O)N[C@@H](CCC(=O)O)C(=O)N[C@H](C(=O)N[C@@H](Cc1c[nH]c2ccccc12)C(=O)N[C@H](C(=O)O)C(C)C)[C@@H](C)O [Ac-ETWV] (Ac-ETWV-OH; C-terminus assumed)
- fold less potent than Ac-GWETWV (ERBIN PDZ domain; [3]): 5.1 fold
- IC50 (ERBIN PDZ domain; [4]): 4.9 µM

Molecule: CC(=O)N[C@@H](Cc1c[nH]c2ccccc12)C(=O)N[C@@H](CCC(=O)O)C(=O)N[C@H](C(=O)N[C@@H](Cc1ccc2ccccc2c1)C(=O)N[C@H](C(=O)O)C(C)C)[C@@H](C)O [Ac-WETNapV] (Ac-WET[2Nal]V-OH; C-terminus assumed)
- IC50 (ERBIN PDZ domain): 0.6 µM
- fold less potent than Ac-WETWV (ERBIN PDZ domain; [5]): 1.1 fold

Molecule: CC(=O)N[C@@H](Cc1c[nH]c2ccccc12)C(=O)N[C@H](C(=O)O)C(C)C [Ac-WV] (Ac-Trp-Val-OH; C-terminus assumed)
- fold less potent than Ac-GWETWV (ERBIN PDZ domain; [3]): 78.7 fold
- IC50 (ERBIN PDZ domain; [4]): 77.8 µM

Molecule: CC(C)[C@H](NC(=O)[C@H](Cc1c[nH]c2ccccc12)NC(=O)[C@@H](NC(=O)[C@@H](N)CCC(=O)O)[C@@H](C)O)C(=O)O [H1N -ETWV] (H-ETWV-OH; C-terminus assumed)
- fold less potent than H1N -GWETWV (ERBIN PDZ domain; [6]): 11.5 fold
- IC50 (ERBIN PDZ domain; [7]): 16.5 µM

Molecule: CC(C)[C@H](NC(=O)[C@H](Cc1c[nH]c2ccccc12)NC(=O)[C@@H](N)[C@@H](C)O)C(=O)O [H1N -TWV] (H-Thr-Trp-Val-OH; C-terminus assumed)
- fold less potent than H1N -GWETWV (ERBIN PDZ domain; [6]): 73.6 fold
- IC50 (ERBIN PDZ domain; [7]): 105 µM

Molecule: CC(C)C(NC(=O)C(Cc1cc2ccccc2[nH]1)NC(=O)C1CCc2ccccc2C1)C(=O)O (stereo not shown) [WV 38]
- IC50 (ERBIN PDZ domain; [8]): 304 µM

Molecule: CC(C)C(NC(=O)C(Cc1cc2ccccc2[nH]1)NC(=O)c1cnc2ccccc2n1)C(=O)O (stereo not shown) [WV 46]
- IC50 (ERBIN PDZ domain; [8]): 334 µM

Molecule: CC(C)C(NC(=O)C(Cc1cc2ccccc2[nH]1)NC(=O)c1ccc(-c2ccc([N+](=O)[O-])cc2)o1)C(=O)O (stereo not shown) [WV 58]
- IC50 (ERBIN PDZ domain; [8]): 697 µM

Molecule: CC(C)C(NC(=O)C(Cc1cc2ccccc2[nH]1)NC(=O)c1cc2ccccc2[nH]1)C(=O)O (stereo not shown) [WV 66]
- IC50 (ERBIN PDZ domain; [8]): 549 µM

Molecule: Ac-AETWV [Ac-AETWV]
- IC50 (ERBIN PDZ domain): 4 µM
- fold less potent than Ac-WETWV (SEQ ID NO:225) (ERBIN PDZ domain): 8.2 fold

Molecule: Ac-ERIWFV [29 | 01-24, SEQ ID NO 668 NAC-ERIWFV]
- IC50 (hZO1 PDZ1): 21400 nM

Molecule: Ac-FETWL [3 | 01-08, SEQ ID NO 642 N^AC-FETWL]
- IC50 (Erbin PDZ): 3160 nM

Molecule: Ac-GWETWV [Ac-GWETWV]
- IC50 (ERBIN PDZ domain): 0.9 µM
- fold less potent than Ac-GWETWV (ERBIN PDZ domain; [3]): 1.0 fold

Molecule: Ac-KETWL [20 | 01-05, SEQ ID NO 659 N^AC-KETWL]
- IC50 (hZO1 PDZ1): 12600 nM
- IC50 (Erbin PDZ): 19800 nM

Molecule: Ac-KITWL [25 | 01-06, SEQ ID NO 664 N^AC-KITWL]
- IC50 (hZO1 PDZ1): 2320 nM

Molecule: Ac-KSTWL [23 | 01-03, SEQ ID NO 662 N^AC-KSTWL]
- IC50 (hZO1 PDZ1): 5310 nM

Molecule: Ac-KTSTSYV [14 | 01-97, SEQ ID NO 653 N^AC-KTSTSYV]
- IC50 (hZO1 PDZ1): 2030 nM

Molecule: Ac-TWY (peptide)
- IC50 [1]: 77.4 µM
- fold less potent than Ac-GWETWV [1]: 81.5 fold

Molecule: Ac-WATWV [Ac-WATWV]
- IC50 (ERBIN PDZ domain): 14.8 µM
- fold less potent than Ac-WETWV (SEQ ID NO:225) (ERBIN PDZ domain): 30.3 fold

Molecule: Ac-WDTWV [Ac-WDTWV]
- IC50 (ERBIN PDZ domain): 1.7 µM
- fold less potent than Ac-WETWV (ERBIN PDZ domain; [9]): 3.4 fold

Molecule: Ac-WEAWV [Ac-WEAWV]
- IC50 (ERBIN PDZ domain): 12.4 µM
- fold less potent than Ac-WETWV (SEQ ID NO:225) (ERBIN PDZ domain): 25.3 fold

Molecule: Ac-WELLI [38 | 01-21, SEQ ID NO 677 NAC-WELLI]
- IC50 (hZO1 PDZ1): 20100 nM

Molecule: Ac-WESWV [Ac-WESWV]
- IC50 (ERBIN PDZ domain): 2.5 µM
- fold less potent than Ac-WETWV (ERBIN PDZ domain; [9]): 5.2 fold

Molecule: Ac-WETAV [Ac-WETAV]
- IC50 (ERBIN PDZ domain): 34 µM
- fold less potent than Ac-WETWV (SEQ ID NO:225) (ERBIN PDZ domain): 69.3 fold
- fold less potent than Ac-WETWV (ERBIN PDZ domain; [5]): 69.3 fold

Molecule: Ac-WETFV [Ac-WETFV]
- IC50 (ERBIN PDZ domain): 14.5 µM
- fold less potent than Ac-WETWV (ERBIN PDZ domain; [5]): 295 fold

Molecule: Ac-WETNapV (peptide)
- IC50 [1]: 0.6 µM
- fold less potent than Ac-WETWV [1]: 1.1 fold

Molecule: Ac-WETWV [Ac-WETWV]
- IC50 (ERBIN PDZ domain): 0.5 µM
- fold less potent than Ac-WETWV (SEQ ID NO:225) (ERBIN PDZ domain): 1 fold
- fold less potent than Ac-GWETWV (ERBIN PDZ domain; [3]): 0.5 fold
- fold less potent than Ac-WETWV (ERBIN PDZ domain; [9]): 1 fold
- fold less potent than Ac-WETWV (ERBIN PDZ domain; [5]): 1 fold

Molecule: Ac-WETYV [Ac-WETYV]
- IC50 (ERBIN PDZ domain): 42.5 µM
- fold less potent than Ac-WETWV (ERBIN PDZ domain; [5]): 86.7 fold

Molecule: Ac-WEVWV [Ac-WEVWV]
- IC50 (ERBIN PDZ domain): 4.8 µM
- fold less potent than Ac-WETWV (ERBIN PDZ domain; [9]): 9.8 fold

Molecule: Ac-WV (peptide)
- IC50 [1]: 77.8 µM
- fold less potent than Ac-GWETWV [1]: 78.7 fold

Molecule: Ac-YRLNDYV [18 | 01-98, SEQ ID NO 657 N^AC-YRLNDYV]
- IC50 (hZO1 PDZ1): 28600 nM

Molecule: Ac-YSLTGYV [15 | 01-94, SEQ ID NO 654 N^AC-YSLTGYV]
- IC50 (hZO1 PDZ1): 12400 nM

Molecule: Ac-YSRSQYV [16 | 01-95, SEQ ID NO 655 N^AC-YSRSQYV]
- IC50 (hZO1 PDZ1): 4620 nM

Molecule: GCGCSWV (peptide)
- IC50 [2]: 2 µM

Molecule: H1N -TWV (peptide)
- IC50 [1]: 105 µM
- fold less potent than H1N -GWETWV [1]: 73.6 fold

Molecule: H-GWETWV [H1N-GWETWV]
- IC50 (ERBIN PDZ domain): 1.4 µM
- fold less potent than H1N -GWETWV (ERBIN PDZ domain; [6]): 1.0 fold

Molecule: H-WETWV [H1N -WETWV]
- IC50 (ERBIN PDZ domain): 0.2 µM
- fold less potent than H1N -GWETWV (ERBIN PDZ domain; [6]): 0.2 fold

Molecule: HTQITKV (peptide)
- IC50 [2]: 200 µM

Molecule: HTQITWV (peptide)
- IC50 [2]: 0.3 µM

Molecule: Ac-GWETWV [Ac-GWETWV]
- IC50 [1]: 0.9 µM
- fold less potent than Ac-GWETWV [1]: 1 fold

Molecule: Ac-WETWV [Ac-WETWV]
- IC50 [1]: 0.5 µM
- fold less potent than Ac-GWETWV [1]: 0.5 fold
- fold less potent than Ac-WETWV [1]: 1 fold

Molecule: Ac-ETWV [Ac-ETWV]
- IC50 [1]: 4.9 µM
- fold less potent than Ac-GWETWV [1]: 5.1 fold

Molecule: H-GWETWV-OH [H1N-GWETWV]
- IC50 [1]: 1.4 µM
- fold less potent than H1N -GWETWV [1]: 1 fold

Molecule: H-WETWV-OH [H1N -WETWV]
- IC50 [1]: 0.2 µM
- fold less potent than H1N -GWETWV [1]: 0.2 fold

Molecule: H-ETWV-OH [H1N -ETWV]
- IC50 [1]: 16.5 µM
- fold less potent than H1N -GWETWV [1]: 11.5 fold
